Results as given in patent publication US9499550B2 (BRISTOL-MYERS SQUIBB COMPANY, priority 2012, dated 2016).
Like-named read-outs stand apart in the source and are kept apart here.

Key:
[1] = test system: HCV genotype 1a (H77 strain) replicon in HUH-7 cells; assay: HCV replicon luciferase reporter assay, genotype 1a; assay type: cell-based; conditions: Hepatitis C virus, Huh-7, 72 h, HCV genotype 1a replicon luciferase, 3 days incubation
In short: (§1)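 Replicon inhibition for both genotypes was measured as Renilla luciferase signal (EnduRen, 7.5 μM final, 2 h) after 3-day, 37° C exposure of replicon-bearing HUH-7 cells in 4% FCS DMEM, 0.5% DMSO. The 1b construct carries S1179I; the 1a H77 construct carries P1496L and S2204I. Twenty-point, 3-fold dilutions were fitted four-parametrically for EC50, and CC50 was taken from multiplexed Cell Titer-Blue.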

[2] = test system: HCV genotype 1b (Con1) replicon in HUH-7 cells; assay: HCV replicon luciferase reporter assay, genotype 1b; assay type: cell-based; conditions: Hepatitis C virus, Huh-7, 72 h, HCV genotype 1b replicon luciferase, 3 days incubation
In short: as §1

| Structure (SMILES) | EC50 ([1]; read-out: LE_1a (EC50, range)) | EC50 ([2]; read-out: LE_1b (EC50, range)) | EC50 ([1]; read-out: LE_1a (EC50)) | EC50 ([2]; read-out: LE_1b (EC50)) |
| --- | --- | --- | --- | --- |
| COc1nnc(O[C@@H]2C[C@H]3C(=O)N[C@]4(C(=O)NS(=O)(=O)C5CC5)C[C@H]4/C=C\CC[C@@H](C)C[C@@H](C)[C@H](NC(=O)OC(C)(C)C(F)(F)F)C(=O)N3C2)c2ccccc12 [Compound 5006, 1,1,1-trifluoro-2-methylpropan-2-yl((2R,6S,7R,9R,13aS,14aR,16aS,Z)-14a-((cyclopropylsulfonyl)carbamoyl)-2-((4-methoxyphthalazin-1-yl)oxy)-7,9-dimethyl-5,16-dioxo-1,2,3,5,6,7,8,9,10,11,13a,14,14a,15,16,16a-hexadecahydrocyclopropa[e]pyrrolo[1,2-a][1,4]diazacyclopentadecin-6-yl)carbamate] | < 5.46 nM | < 5.46 nM |  |  |
| COc1nnc(O[C@@H]2C[C@H]3C(=O)N[C@]4(C(=O)NS(=O)(=O)C5(C)CC5)C[C@H]4/C=C\CC[C@H](C)C[C@@H](C)[C@H](NC(=O)OC(C)(C)C(F)(F)F)C(=O)N3C2)c2ccccc12 [Compound 5007, 1,1,1-trifluoro-2-methylpropan-2-yl((2R,6S,7R,9S,13aS,14aR,16aS,Z)-2-((4-methoxyphthalazin-1-yl)oxy)-7,9-dimethyl-14a-(((1-methylcyclopropyl)sulfonyl)carbamoyl)-5,16-dioxo-1,2,3,5,6,7,8,9,10,11,13a,14,14a,15,16,16a-hexadecahydrocyclopropa[e]pyrrolo[1,2-a][1,4]diazacyclopentadecin-6-yl)carbamate] | < 5.46 nM | < 5.46 nM |  |  |
| COc1nnc(O[C@@H]2C[C@H]3C(=O)N[C@]4(C(=O)NS(=O)(=O)C5(C)CC5)C[C@H]4/C=C\CC[C@@H](C)C[C@@H](C)[C@H](NC(=O)OC(C)(C)C(F)(F)F)C(=O)N3C2)c2ccccc12 [Compound 5008, 1,1,1-trifluoro-2-methylpropan-2-yl((2R,6S,7R,9R,13aS,14aR,16aS,Z)-2-((4-methoxyphthalazin-1-yl)oxy)-7,9-dimethyl-14a-(((1-methylcyclopropyl)sulfonyl)carbamoyl)-5,16-dioxo-1,2,3,5,6,7,8,9,10,11,13a,14,14a,15,16,16a-hexadecahydrocyclopropa[e]pyrrolo[1,2-a][1,4]diazacyclopentadecin-6-yl)carbamate] | < 5.46 nM | < 5.46 nM |  |  |
| [2H]C([2H])([2H])C(OC(=O)N[C@@H]1C(=O)N2C[C@H](Oc3nnc(OC)c4ccccc34)C[C@H]2C(=O)N[C@]2(C(=O)NS(=O)(=O)C3(C)CC3)C[C@H]2/C=C\CC[C@H](C)C[C@H]1C)(C([2H])([2H])[2H])C(F)(F)F [Compound 5009] | < 5.46 nM | < 5.46 nM |  |  |
| [2H]C([2H])([2H])C(OC(=O)N[C@@H]1C(=O)N2C[C@H](Oc3nnc(OC)c4ccccc34)C[C@H]2C(=O)N[C@]2(C(=O)NS(=O)(=O)C3(C)CC3)C[C@H]2/C=C\CC[C@@H](C)C[C@H]1C)(C([2H])([2H])[2H])C(F)(F)F [Compound 5010] | < 5.46 nM | < 5.46 nM |  |  |
| COc1nnc(O[C@@H]2C[C@H]3C(=O)N[C@]4(C(=O)NS(=O)(=O)C5(C)CC5)C[C@H]4/C=C\CC[C@H](C)C[C@@H](C)[C@H](NC(=O)NC(C)(C)C)C(=O)N3C2)c2ccccc12 [Compound 5011, (2R,6S,7R,9S,13aS,14aR,16aS,Z)-6-(3-(tert-butyl)ureido)-2-((4-methoxyphthalazin-1-yl)oxy)-7,9-dimethyl-N-((1-methylcyclopropyl)sulfonyl)-5,16-dioxo-1,2,3,5,6,7,8,9,10,11,13a,14,14a,15,16,16a-hexadecahydrocyclopropa[e]pyrrolo[1,2-a][1,4]diazacyclopentadecine-14a-carboxamide] | 4.82 to 103 nM | 4.82 to 103 nM | 41.1 nM | 14.2 nM |
| COc1nnc(O[C@@H]2C[C@H]3C(=O)N[C@]4(C(=O)NS(=O)(=O)C5(C)CC5)C[C@H]4/C=C\CC[C@@H](C)C[C@@H](C)[C@H](NC(=O)NC(C)(C)C)C(=O)N3C2)c2ccccc12 [Compound 5012, (2R,6S,7R,9R,13aS,14aR,16aS,Z)-6-(3-(tert-butyl)ureido)-2-((4-methoxyphthalazin-1-yl)oxy)-7,9-dimethyl-N-((1-methylcyclopropyl)sulfonyl)-5,16-dioxo-1,2,3,5,6,7,8,9,10,11,13a,14,14a,15,16,16a-hexadecahydrocyclopropa[e]pyrrolo[1,2-a][1,4]diazacyclopentadecine-14a-carboxamide] | < 5.46 nM | < 5.46 nM |  |  |
| COc1nnc(O[C@@H]2C[C@H]3C(=O)N[C@]4(C(=O)NS(=O)(=O)C5(C)CC5)C[C@H]4/C=C\CC[C@H](C)C[C@@H](C)[C@H](NC(=O)O[C@@H]4C[C@@H]5C[C@@H]5C4)C(=O)N3C2)c2ccccc12 [Compound 5013, (1R,3r,5S)-bicyclo[3.1.0]hexan-3-yl((2R,6S,7R,9S,13aS,14aR,16aS,Z)-2-((4-methoxyphthalazin-1-yl)oxy)-7,9-dimethyl-14a-(((1-methylcyclopropyl)sulfonyl)carbamoyl)-5,16-dioxo-1,2,3,5,6,7,8,9,10,11,13a,14,14a,15,16,16a-hexadecahydrocyclopropa[e]pyrrolo[1,2-a][1,4]diazacyclopentadecin-6-yl)carbamate] | < 5.46 nM | < 5.46 nM |  |  |
| COc1nnc(O[C@@H]2C[C@H]3C(=O)N[C@]4(C(=O)NS(=O)(=O)C5(C)CC5)C[C@H]4/C=C\CC[C@@H](C)C[C@@H](C)[C@H](NC(=O)O[C@@H]4C[C@@H]5C[C@@H]5C4)C(=O)N3C2)c2ccccc12 [Compound 5014, (1R,3r,5S)-bicyclo[3.1.0]hexan-3-yl((2R,6S,7R,9R,13aS,14aR,16aS,Z)-2-((4-methoxyphthalazin-1-yl)oxy)-7,9-dimethyl-14a-(((1-methylcyclopropyl)sulfonyl)carbamoyl)-5,16-dioxo-1,2,3,5,6,7,8,9,10,11,13a,14,14a,15,16,16a-hexadecahydrocyclopropa[e]pyrrolo[1,2-a][1,4]diazacyclopentadecin-6-yl)carbamate] | < 5.46 nM | < 5.46 nM |  |  |
| COc1nnc(O[C@@H]2C[C@H]3C(=O)N[C@]4(C(=O)NS(=O)(=O)C5(C)CC5)C[C@H]4/C=C\CC[C@H](C)C[C@@H](C)[C@H](NC(=O)OC(C)(C)C)C(=O)N3C2)c2ccccc12 [Compound 5015, tert-butyl ((2R,6S,7R,9S,13aS,14aR,16aS,Z)-2-((4-methoxyphthalazin-1-yl)oxy)-7,9-dimethyl-14a-(((1-methylcyclopropyl)sulfonyl)carbamoyl)-5,16-dioxo-1,2,3,5,6,7,8,9,10,11,13a,14,14a,15,16,16a-hexadecahydrocyclopropa[e]pyrrolo[1,2-a][1,4]diazacyclopentadecin-6-yl)carbamate] | 4.82 to 103 nM | < 5.46 nM |  |  |
| COc1nnc(O[C@@H]2C[C@H]3C(=O)N[C@]4(C(=O)NS(=O)(=O)C5(C)CC5)C[C@H]4/C=C\CC[C@@H](C)C[C@@H](C)[C@H](NC(=O)OC(C)(C)C)C(=O)N3C2)c2ccccc12 [Compound 5016, tert-butyl ((2R,6S,7R,9R,13aS,14aR,16aS,Z)-2-((4-methoxyphthalazin-1-yl)oxy)-7,9-dimethyl-14a-(((1-methylcyclopropyl)sulfonyl)carbamoyl)-5,16-dioxo-1,2,3,5,6,7,8,9,10,11,13a,14,14a,15,16,16a-hexadecahydrocyclopropa[e]pyrrolo[1,2-a][1,4]diazacyclopentadecin-6-yl)carbamate] | < 5.46 nM | < 5.46 nM |  |  |
